Laboratory results published in article PMC3706402, “Identification and Expression of the CCAP Receptor in the Chagas’ Disease Vector, Rhodnius prolixus, and Its Involvement in Cardiac Control” (PLoS ONE, 2013).
Entries after “also recorded” stand apart in the source; their conditions may differ. Bridge positions count the residues as written; N and C are the ends. Ends that are not written are not given here.

Experiments:
RhoprCCAPR [1] = assay: Functional receptor expression (aequorin bioluminescence, calcium mobilization) assay in CHO-WTA11 cells; type: cell-based, Rhodnius prolixus; conditions: for Activation of RhoprCCAPR (in words): CHO-WTA11 cells expressing RhoprCCAPR, bioluminescent response
Procedure: The coding region of RhoprCCAPR (1,128 bp) (RhoprCCAPR) was amplified from unfed 5th instar CNS cDNA with gene specific primers (Table 1C) using a Q5 High fidelity DNA polymerase (New England Biolabs, Pickering, ON). At the 5′ end before the ATG initiation codon, the Kozak translation initiation sequence ([…]) was introduced since this is required for optimal translation by eukaryotic ribosomes (Table 1C) [26]–[28]. The PCR product was run on a 0.8% agarose gel for 40 mins (160V) and the correct size of band was excised and purified (Promega, Madison, WI, USA). This was then subcloned into the pGEM T easy vector (Promega, Madison, WI) to verify its sequence. The insert with the Kozak sequence was excised using restriction enzyme (NotI) and subcloned into the expression vector, pcDNA™3.1(+) (Invitrogen, Carlsbad, CA) to express in Chinese hamster ovary (CHO-K1) WTA11, mammalian cells (Euroscreen S. A., Belgium; provided by Prof. Dr. M. Parmentier and Dr. M. Detheux; Brussels, Belgium).
RhoprCCAPR was transiently expressed in CHO-WTA11 cells that stably express promiscuous Gα16 and apoaequorin. This cell line has been used extensively for insect GPCR functional assays. The transfection was performed using X-treme HP DNA transfection reagent (Roche Applied Science, Indianapolis, IN) with the ratio of 3 (transfection reagent) to 1 (RhoprCCAPR/pcDNA™3.1(+) or empty pcDNA™3.1(+) vector) according to the manufacture’s protocol (Roche Applied Science, Indianapolis, IN). Cells were grown in the complete Dulbecco’s Modified Eagle Medium Nutrient Mixture F12-Ham (DMEM/F12, 10% fetal bovine serum, FBA, 100 IU/ml penicillin/streptomycin (Invitrogen, Carlsbad, CA)) in the 5% CO2 37°C incubator. After 48 hours, transfected cells were incubated with 5 µM Coelentarazine for 4 hours (Invitrogen, Carlsbad, CA) at room temperature in the dark. Interaction between ligand and the cloned RhoprCCAPR leads to a bioluminescent response that is mediated by the IP3/Ca^2+ signaling pathway. The luminescence assay was performed on opaque 96-well microplates (Corning, Lowell, MA). 50 µl of cells were introduced into each well of the 96-well plate that contained either controls or different concentration of peptides (RhoprCCAP, RhoprCorazonin, RhoprAKH and GNDNFMRFa) (Table 2) and the changes of luminescence were recorded for 20 sec. Wells only containing DMEM/0.1% BSA medium served as a negative control, while wells containing 50nM ATP served as a positive control. All luminescence values were corrected for background values from wells containing only DMEM/BSA medium and all values were calculated as maximum percentage difference. The response for each ligand concentration in replica wells and from at least three replica plates was averaged for analysis. GraphPad prism 5 (version 5.03) was used to analyze and generate the data.

[2] = test system: heartbeat frequency in some insects; conditions: 34 (so in the source); cited from earlier work
Excerpt: (§1) Also, these peptides are functionally inter-related. […] [33]. In M. sexta, AKH mobilize lipids from the fat body during flight or locomotion when heartbeat frequency also increases.

RhoprCCAPR [3] = assay: Calcium mobilization assay with RhoprCCAPR expressed in CHO-K1 cells; type: cell-based, Rhodnius prolixus; conditions: without promiscuous Gα, read-out: EC50 using CHO-K1 cells
Procedure: To determine the endogenous ligand for the isolated putative RhoprCCAPR in R. prolixus, we used a calcium mobilization assay which expresses the RhoprCCAPR clone in CHO-K1 cells. […] The receptor was not activated by other peptides that were tested, including RhoprAKH, RhoprCorazonin and an extended RhoprFMRFa, GNDNFMRFa (Figure 5A, 5B, Table 2). […] Thus, our control data illustrate that the functional receptor assay system is only activated in cells that are transfected with RhoprCCAPR and not by any endogenous receptors in these CHO cells.

[4] = test system: dorsal vessel of R. prolixus; assay: In vitro heartbeat (dorsal vessel preparation, impedance converter); set-up: species or system Rhodnius prolixus
Procedure: Adult R. prolixus were anesthetized with CO2 for 10 sec and 1 µl of 2 µg of dsCCAPR was injected into the thorax using a 5 µl Hamilton syringe to knock down RhoprCCAPR transcript levels. As a control, groups of R. prolixus were injected with either 1 µl of dsARG or had no injection. R. prolixus were left for 1 hour at room temperature to recover and then placed into an incubator at 28°C on a 16 h:8 h light/dark cycle.
In vitro heartbeat was monitored as described in Lee and Lange (2011) with minor modifications. The ventral cuticle, digestive and reproductive systems were dissected and removed under RNase free saline. The dorsal vessel and dorsal diaphragm remained attached to the dorsal cuticle. Then, the dorsal cuticle was placed onto a Sylgard-coated dissecting dish and covered with 100 µL of saline. Electrodes attached to an impedance converter (UFI model 2991, Morro Bay, CA, USA) were placed between the fifth and sixth abdominal segments on either side of the dorsal vessel anterior to the alary. The preparation was stabilized in 100 µL of saline for 10 min at room temperature, and then 50 µL of 10^−9M CCAP was exchanged for 50 µL of saline. Heartbeat frequency was measured from the traces observed on a Linear Flat-bed single channel chart recorder. The preparation was washed with saline for 5 mins post application of CCAP. Heartbeat frequency was determined for 1 min before and after the application of 10^−9M CCAP. The response to 10^−9M CCAP was quantified by measuring the increase in frequency compared to saline, which was then expressed as a percentage of the maximum change in frequency for each preparation. Pools of tissues including dorsal vessel/fat body/trachea were collected and the percentage of knockdown was measured by qPCR as indicated above.

CCAP receptor (CG6111) = conditions: read-out: EC50, D. melanogaster CCAP receptor (CG6111); cited from earlier work
Excerpt: (§2) The improved sensitivity of this cell line over CHO-K cells is due to presence of the promiscuous Gα proteins.

CCAP receptor = conditions: read-out: EC50, A. gambiae CCAP receptor; cited from earlier work
Excerpt: as §2

CCAPR1 = conditions: read-out: EC50, T. castaneum CCAPR1; cited from earlier work
Excerpt: as §2

CCAPR2 = conditions: read-out: EC50, T. castaneum CCAPR2; cited from earlier work
Excerpt: as §2

heart of R. prolixus = conditions: cited from earlier work
hindgut of R. prolixus = test system: hindgut of R. prolixus; set-up: method as in earlier work; conditions: dose-dependent; ref 31 (so in the source); cited from earlier work
[5] = test system: midgut α-amylase and protease activity; conditions: cited from earlier work
Excerpt: Crustacean cardioactive peptide (CCAP) is a cyclic nonapeptide that is conserved in arthropods. CCAP was first isolated as a cardioaccelerator from the pericardial organs of the shore crab, Carcinus maenas, [8]. Later, it was biochemically isolated from the nervous system of insects, [10]. The important functions of CCAP in insects have been well documented. […] The CCAP may act in a paracrine manner, released from CCAP-containing midgut endocrine cells, [44].

[6] = test system: heart rate in Drosophila melanogaster; conditions: cited from earlier work
Excerpt: (§3) Crustacean cardioactive peptide (CCAP) is a cyclic nonapeptide that is conserved in arthropods. CCAP was first isolated as a cardioaccelerator from the pericardial organs of the shore crab, Carcinus maenas, [8]. Later, it was biochemically isolated from the nervous system of insects, [10]. The important functions of CCAP in insects have been well documented.

[7] = test system: heart rate in Manduca sexta; conditions: cited from earlier work
Excerpt: as §3

[8] = test system: oviduct of Locusta migratoria; conditions: cited from earlier work
Excerpt: as §3

corpora cardiaca = conditions: 33 (so in the source); cited from earlier work
Excerpt: as §1

[9] = CHO-WTA11 cells stably expressing Gα16 and apoaequorin, luminescence recorded 20 sec, averaged from at least three replica plates

With “pQLTFSTDW-NH2 [RhoprAKH, adipokinetic hormone, pQLTFSTDW-NH2]” the “Activation of RhoprCCAPR (in words)” value (RhoprCCAPR [1]) was “not activated”, the “Activation of RhoprCCAPR (in words)” value (RhoprCCAPR [1]; listed as AKH) was “neither AKH nor corazonin activate the RhoprCCAPR” and the “EC50 (M) RhoprCCAPR” value (RhoprCCAPR [1]; [9]) was “Not active”. The “Effect on heartbeat frequency in some insects” value (“Effect … in some insects” for short) [2] was “increase heartbeat frequency”.

With “PFCNAFTGC-NH2 (disulfide 3-9 (inferred)) [RhoprCCAP]” the EC50 (RhoprCCAPR [1]; [9]) was 0.0122 µM, the EC50 (RhoprCCAPR [3]) was 0.341 ± 0.0088 µM and the “Effect of CCAP on heartbeat after RhoprCCAPR knockdown (in words)” value ([4]; 10^−9 M CCAP, RhoprCCAPR knocked down by dsCCAPR, in vitro) was “loss of function; also recorded: unresponsive; also recorded: eliminates the CCAP-induced increase in vitro; also recorded: cardioacceleratory effect is abolished”. For the same substance, the “In vitro heartbeat frequency in the presence of 10^−9 M CCAP, dsARG treated bugs” value ([4]; dsARG-treated bugs, saline baseline 10.4±2.9, paired t test p = 0.0376, vs dsCCAPR unpaired p = 0.0318, mean ± SEM, n = 5 (Figure 6)) was 15.6±3.9 beats/min, the “In vitro heartbeat frequency in the presence of 10^−9 M CCAP, dsCCAPR treated bugs” value ([4]; dsCCAPR-treated bugs, saline baseline 5.4±3.0, paired t test p = 0.1688, vs dsARG unpaired p = 0.0318, mean ± SEM, n = 5 (Figure 6)) was 4.6±3.3 beats/min and the EC50 (CCAP receptor (CG6111)) was 0.00054 µM. For the same substance, the EC50 (CCAP receptor) was 0.001 µM, the EC50 (CCAPR1) was 0.624 µM and the EC50 (CCAPR2) was 0.022 µM. For the same substance, the “Effect on heartbeat frequency in the heart, R. prolixus (Discussion)” value (heart of R. prolixus; dose-dependent, ref 31 (so in the source)) was “increases heartbeat frequency and contraction in a dose-dependent manner”, the “Effect on heartbeat frequency, R. prolixus” value (heart of R. prolixus; in vitro, 5th instar) was “increases heartbeat frequency in vitro; also recorded: increases the frequency of the heartbeat in R. prolixus in a reversible, dose-dependent manner” and the “Effect on hindgut contraction” value (hindgut of R. prolixus) was “increases heartbeat frequency and contraction in a dose-dependent manner”. The “Effect on enzyme secretion, P. americana” value [5] was “regulates enzyme secretion”, the “Effect on α-amylase and protease activity” value ([5]; isolated midgut) was “increases α-amylase and protease activity” and the “Effect on heart rate, D. melanogaster” value [6] was “triggers increasing heart rate”. The “Effect on heart rate, M. sexta” value [7] was “triggers increasing heart rate”, the “Effect on oviduct contractions” value [8] was “modulates oviduct contractions” and the “Effect on AKH release” value (corpora cardiaca) was “influences AKH release”. The “Effect … in some insects” value [2] was “increase heartbeat frequency”.

For GNDNFMRF-NH2 [ExtendedFMRFa], the “Activation of RhoprCCAPR (in words)” value (RhoprCCAPR [1]; listed as GNDNFMRFa) was “not activated” and the “EC50 (M) RhoprCCAPR” value (RhoprCCAPR [1]; [9]) was “Not active”.

With pQTFQYSRGWTN-NH2 [Corazonin] the “Activation of RhoprCCAPR (in words)” value (RhoprCCAPR [1]) was “neither AKH nor corazonin activate the RhoprCCAPR”, the “Activation of RhoprCCAPR (in words)” value (RhoprCCAPR [1]; listed as RhoprCorazonin) was “not activated” and the “EC50 (M) RhoprCCAPR” value (RhoprCCAPR [1]; [9]) was “Not active”. For the same substance, the “Effect … in some insects” value [2] was “increase heartbeat frequency”.
